Results as given in patent US10858321B2, “Composition for inducing cell reprogramming” (GWANGJU INSTITUTE OF SCIENCE AND TECHNOLOGY, priority 2014, dated 2020).
Values belong to the compound of their own block, whether it stands above or below them.

Assays:
C2C12 myoblasts = experiment: MTT assay (cytotoxicity); format: cell-based, mouse; settings: for IC50: C2C12 myoblasts, incubated 2 days with compound; for cytotoxicity: result in words, comparison with the indazole derivatives
Procedure: C2C12 myoblasts were seeded in a 96-well plate at a density of 3×10^3 cells per well. The cells were cultured for one day, and then treated with each compound. Next, the cells were incubated for 2 days, and then treated with a serum-free medium containing 3-(4,5-dimethylthiazol-2-yl)-2,5-diphenyltetrazolium bromide (MTT) for 3 hours. After removal of the medium, the cells were incubated in DMSO for 10 minutes while they were shaken. The absorbance at 570 nm was measured by a microreader (VersaMax, Molecular Devices) (see FIG. 4).

[1] = tested on: C2C12 mouse skeletal myoblasts; experiment: Cell screening by Alizarin red staining (direct reprogramming of myoblasts into osteoblasts); format: cell-based; design: key to Alizarin red staining (osteoblasts): ++ (strong positive); + (weak positive); − (negative); settings: for reprogramming potential in differentiation into osteoblasts: Alizarin red staining, result in words; for Alizarin red staining (osteoblasts): C2C12 myoblasts treated 72 hours with compound, then osteogenic differentiation inducing medium 14 days, reversine 100 nM
Procedure: A method for identifying compounds that induce cell reprogramming was based on a previous study (PMID: 23044010 and 18974773) on the myocyte-to-osteocyte conversion by bone formation induction and a previous reversine publication (Chen S 2004).
C2C12 mouse skeletal myoblasts were seeded in a 24-well cell culture dish at a density of 1×10^4 cells per well. 24 Hours after seeding, the compound of interest was added to three well at a concentration of […]. For a positive control, the cells were treated with 100 nM reversine or 2 μM BIO. The two compounds are known to induce the conversion of myoblasts to […] (Chen S 2004 and Kim WH recapitulate papers). For a negative control, the cells were untreated or treated with DMSO. The cells were treated with each compound for a total of 72 hours, and were further treated with each compound after 48 hours. The cytotoxicity of each compound could be confirmed from disappearance of a portion of the cells and from floating cell debris during culture, and a compound causing cytotoxicity was screened again at a concentration of 250 nM. After 72 hours, the medium was replaced with an osteogenic differentiation inducing medium (treated for 14 days with a DMEM supplemented with 10% FBS, […] ascorbic acid-2-phosphate, 0.1 μM dexamethasone, 10 mM β-glycerophosphate, 50 units/mL of penicillin, and […] streptomycin). The osteogenic differentiation inducing medium was based on one previously described in direct cell reprogramming (reversine papers, Chen S 2004 and Chen S 200/). Direct cell reprogramming from myocytes to osteocytes was analyzed by Alizarin red staining that detects calcium deposits (Gregory CA 2004 PMID: 15136169) in bone lineage cells.
Cells were washed once with PBS, and then fixed with phosphate-buffered formalin for 20 minutes. The fixed cells were washed with distilled water, and immersed in a solution of 1% Alizarin red-S in water for 5 minutes. The remaining dye was washed out with distilled water. The cells were dried, and then imaged with an optical microscope (CKX41 Olympus). The stained cells did look red, and a compound corresponding to such cells was selected as a ‘hit’ compound and further analyzed.

adipocytes = experiment: Oil red O staining (differentiation into adipocytes); format: cell-based; design: key to Oil red O staining (adipocytes): ++ (strong positive); + (weak positive); − (negative); settings: for reprogramming potential in differentiation into adipocytes: oil red O staining, result in words
GSK-3β = biological target: T1, GSK-3β (Homo sapiens, UniProt P49841); experiment: HTRF kinase assay, GSK-3β; format: biochemical; settings: 1 μM compound
T1 construct: purchased Millipore (Billerica, Mass.)
T1 sequence (P49841 whole entry, species assumed): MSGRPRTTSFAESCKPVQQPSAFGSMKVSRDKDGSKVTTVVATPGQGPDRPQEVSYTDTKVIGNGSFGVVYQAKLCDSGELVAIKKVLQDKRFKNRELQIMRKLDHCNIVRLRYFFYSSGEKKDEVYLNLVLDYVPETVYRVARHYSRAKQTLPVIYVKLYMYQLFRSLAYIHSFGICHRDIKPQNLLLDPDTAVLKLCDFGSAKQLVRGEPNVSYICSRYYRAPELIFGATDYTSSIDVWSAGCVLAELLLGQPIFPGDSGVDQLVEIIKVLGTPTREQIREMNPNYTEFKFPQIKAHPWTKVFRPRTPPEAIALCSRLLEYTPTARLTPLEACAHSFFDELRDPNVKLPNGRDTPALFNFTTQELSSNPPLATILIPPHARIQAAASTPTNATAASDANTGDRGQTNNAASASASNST
Procedure: (§1) The inhibitory activities of indazole derivatives against GSK-3 β and Aurora A were analyzed by HTRF (homogeneous time-resolved fluorescence) assay. The HTRF assay is an assay method that detects the phosphorylation of peptide substances in the presence of ATP. Phosphorylated substances were detected by TR-FRET (Time Resolved-Fluorescence Resonance) signals. Recombinant GSK-3 β and Aurora A kinase were purchased from Millipore (Billerica, Mass.). Using a HTRF KinEASE kit (Cisbio), the assay was performed. Each of GSK-3 β and Aurora A was treated with 1 μM of each indazole compound, and the degree of inhibition of phosphorylation was analyzed. The assay was composed of a compound-enzyme mixture and peptide substance dissolved in kinase reaction buffer (250 mM HEPES (pH 7.0), 0.5 mM orthovanadate, 0.05% BSA, 0.1% NaN3). After addition of detection buffer, the TR-FRET signal was detected by an EnVision multi-label reader.

Aurora A = biological target: T2, Aurora A (Homo sapiens, UniProt O14965); experiment: HTRF kinase assay, Aurora A; format: biochemical; settings: 1 μM compound
T2 construct: purchased Millipore (Billerica, Mass.)
T2 sequence (O14965 1-403): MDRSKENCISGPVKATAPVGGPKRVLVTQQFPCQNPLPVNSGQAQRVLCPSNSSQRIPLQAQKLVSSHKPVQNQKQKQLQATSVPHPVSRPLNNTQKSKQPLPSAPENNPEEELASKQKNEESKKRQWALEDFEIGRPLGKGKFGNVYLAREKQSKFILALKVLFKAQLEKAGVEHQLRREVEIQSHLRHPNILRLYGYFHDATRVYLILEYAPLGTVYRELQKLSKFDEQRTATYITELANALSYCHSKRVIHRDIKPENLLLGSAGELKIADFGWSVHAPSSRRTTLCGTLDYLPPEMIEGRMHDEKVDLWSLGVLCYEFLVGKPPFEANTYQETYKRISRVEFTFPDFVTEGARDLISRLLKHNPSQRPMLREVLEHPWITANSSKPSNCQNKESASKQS
Procedure: as §1

SMILES: O=C(c1ccc2[nH]nc(NC(=NO)c3ccccc3)c2c1)N1CCCCC1 [LDD-1945, N′-hydoxy-N-(5-(piperidine-1-carbonyl)-111-indazol-3-yl)benzimidamide]
- IC50 (C2C12 myoblasts): > 10 µM
- reprogramming potential in differentiation into osteoblasts [1]: strong reprogramming potential
- Alizarin red staining (osteoblasts) [1]: ++

SMILES: COCCN1CCN(C(=O)c2ccc3[nH]nc(C(=NO)Nc4ccccc4)c3c2)CC1 [LDD-1988, N′-hydroxy-5-(4-(2-methoxyethyl)piperazine-1-carbonyl)-N-phenyl-1H-indazole 3-carboximidamide]
- Oil red O staining (adipocytes) (adipocytes): ++
- reprogramming potential in differentiation into adipocytes (adipocytes): strong reprogramming potential
- IC50 (C2C12 myoblasts; Mus musculus, 48 h): > 10 µM
- Alizarin red staining (osteoblasts) [1]: +

SMILES: O=C(c1ccc2[nH]nc(C(=NO)Nc3ccccc3)c2c1)N1CCCCC1 [LDD-1821, N′-hydroxy-N-phenyl-5-(piperidine-1-carbonyl)-1H-indazole-3-carboxamide]
- Oil red O staining (adipocytes) (adipocytes): ++
- reprogramming potential in differentiation into adipocytes (adipocytes): strong reprogramming potential
- IC50 (C2C12 myoblasts): > 10 µM
- % Inhibition at 1 μM concentration, GSK-3β (GSK-3β; 1 µM): no inhibitory activity
- % Inhibition at 1 μM concentration, GSK-3β (GSK-3β; listed as LDD1821, 1 µM): 0.2%
- % Inhibition at 1 μM concentration, Aurora-A (Aurora A; 1 µM): no inhibitory activity
- % Inhibition at 1 μM concentration, Aurora-A (Aurora A; listed as LDD1821, 1 µM): 0%
- reprogramming potential in differentiation into osteoblasts [1]: strong reprogramming potential
- Alizarin red staining (osteoblasts) [1]: ++

SMILES: COC(=O)c1ccc2[nH]nc(C(=NO)Nc3ccccc3)c2c1 [LDD-2196, Methyl-3-(N′-hydroxy-N-phenylcarbamimidoyl)-1H-indazole-5-carboxylate]
- IC50 (C2C12 myoblasts; Mus musculus, 48 h): > 10 µM

SMILES: O=C(O)c1ccc2[nH]nc(NC(=NO)c3ccccc3)c2c1 [LDD-2194, 3-(N′-hydroxybenzimidamido)-1H-indazole-5-carboxylic Acid]
- IC50 (C2C12 myoblasts; Mus musculus, 48 h): > 10 µM

SMILES: CCCN1CCN(C(=O)c2ccc3[nH]nc(C(=NO)Nc4ccccc4)c3c2)CC1 [LDD-1987, N′-hydroxy-N-phenyl-5-(4-propylpiperazine-1-carbonyl)-1H-indazole-3-carboxamide]
- Oil red O staining (adipocytes) (adipocytes): ++
- reprogramming potential in differentiation into adipocytes (adipocytes): strong reprogramming potential
- IC50 (C2C12 myoblasts): > 10 µM
- Alizarin red staining (osteoblasts) [1]: +

SMILES: O=C(c1ccc2[nH]nc(C(=NO)Nc3ccc(F)cc3)c2c1)N1CCCCC1 [LDD-2199, N-(4-fluorophenyl)-N′-hydroxy-5-(piperidine-1-carbonyl)-1H-indazole-3-carboxamide]
- IC50 (C2C12 myoblasts): > 10 µM
- reprogramming potential in differentiation into osteoblasts [1]: strong reprogramming potential
- Alizarin red staining (osteoblasts) [1]: ++

SMILES: O=[N+]([O-])c1ccc2[nH]nc(NS(=O)(=O)c3ccccc3)c2c1 [LDD-1667, N-(5-nitro-111-indazol-3-yl)benzenesulfonamide]
- % Inhibition at 1 μM concentration, GSK-3β (GSK-3β): 0%
- % Inhibition at 1 μM concentration, Aurora-A (Aurora A): 0%
- Alizarin red staining (osteoblasts) [1]: −

SMILES: O=C(O)c1ccc2[nH]nc(C(=NO)Nc3ccccc3)c2c1 [LDD-1986, 3-(N′-hydroxy-N-phenylcarbamimidoyl)-1H-indazole-5-carboxylic Acid]
- Oil red O staining (adipocytes) (adipocytes): ++
- reprogramming potential in differentiation into adipocytes (adipocytes): strong reprogramming potential
- IC50 (C2C12 myoblasts; Mus musculus, 48 h): > 10 µM
- Alizarin red staining (osteoblasts) [1]: +

- % Inhibition at 1 μM concentration, GSK-3β (GSK-3β): 6.5%
- % Inhibition at 1 μM concentration, Aurora-A (Aurora A): 0%
SMILES: O=C(Nc1n[nH]c2ccc([N+](=O)[O-])cc12)c1ccccc1 [LDD-1664, N-(5-nitro-1(2)H-indazol-3-yl)-benzamide]
- reprogramming potential in differentiation into osteoblasts [1]: strong reprogramming potential
- Alizarin red staining (osteoblasts) [1]: ++

SMILES: COC(=O)c1ccc2[nH]nc(NC(=NO)c3ccccc3)c2c1 [LDD-2195, Methyl-3-(N′-hydroxybenzimidamido)-1H-indazole-5-carboxylate]
- IC50 (C2C12 myoblasts; Mus musculus, 48 h): > 10 µM

- inhibition at 1 µM (GSK-3β; read-out: % Inhibition at 1 μM concentration, GSK-3β): 0.5%
- inhibition at 1 µM (Aurora A; read-out: % Inhibition at 1 μM concentration, Aurora-A): 32.5%
SMILES: O=C(Nc1n[nH]c2ccc(C(=O)N3CCCCC3)cc12)c1ccccc1 [LDD-1820, N-(5-(piperidine-1-carbonyl)-1H-indazol-3-yl)benzamide]
- Alizarin red staining (osteoblasts) [1]: −

SMILES: O=C(O)c1ccc2[nH]nc(C(=NO)Nc3ccc(F)cc3)c2c1 [LDD-2197, 3-N-(4-fluorophenyl)-N′-hydroxycarbamimidoyl-1H-indazole-5-carboxylic Acid]
- IC50 (C2C12 myoblasts): > 10 µM

SMILES: c1nc2nc(Nc3ccc(N4CCOCC4)cc3)nc(NC3CCCCC3)c2[nH]1 [Reversine, reference compound]
- Oil red O staining (adipocytes) (adipocytes): ++
- cytotoxicity (C2C12 myoblasts): high cytotoxicity
- reprogramming potential in differentiation into osteoblasts [1]: strong reprogramming potential
- Alizarin red staining (osteoblasts) [1]: ++

SMILES: O=C1Nc2cc(Br)ccc2/C1=C1/Nc2ccccc2/C1=N\O [BIO, reference compound]
- cytotoxicity (C2C12 myoblasts): high cytotoxicity

SMILES: COc1ccc(NC(=NO)c2n[nH]c3ccc(C(=O)N4CCCCC4)cc23)cc1 [LDD-2200, N′-hydroxy-N-(4-methoxyphenyl)-5-(piperidine-1-carbonyl)-1H-indazole-3-carboxamide]
- IC50 (C2C12 myoblasts): > 10 µM
- reprogramming potential in differentiation into osteoblasts [1]: strong reprogramming potential
- Alizarin red staining (osteoblasts) [1]: ++

SMILES: COc1ccc(NC(=NO)c2n[nH]c3ccc(C(=O)O)cc23)cc1 [LDD-2198, 3-(N′-hydroxy-N-(4-methoxyphenyl)carbaminidoyl)-1H-indazole-5-carboxylic Acid]
- IC50 (C2C12 myoblasts): > 10 µM
